Source: paper PMC4261083, “An atypical residue in the pore of Varroa destructor GABA-activated RDL receptors affects picrotoxin block and thymol modulation” (Insect Biochemistry and Molecular Biology, 2014)
Substitutions are numbered along the chain they refer to.

How the values were obtained:
Format in all cases: cell-based
[1] = biological target: T1, A20′S mutant Drosophila RDL receptor (Drosophila melanogaster, UniProt P25123, A319S); assay: GABA activation of RDL receptors, two electrode voltage clamp in Xenopus oocytes
T1 construct: expressed in transfected cells; host or cells: Xenopus laevis oocytes injected with cRNA
T1 sequence (P25123 45-606 A319S): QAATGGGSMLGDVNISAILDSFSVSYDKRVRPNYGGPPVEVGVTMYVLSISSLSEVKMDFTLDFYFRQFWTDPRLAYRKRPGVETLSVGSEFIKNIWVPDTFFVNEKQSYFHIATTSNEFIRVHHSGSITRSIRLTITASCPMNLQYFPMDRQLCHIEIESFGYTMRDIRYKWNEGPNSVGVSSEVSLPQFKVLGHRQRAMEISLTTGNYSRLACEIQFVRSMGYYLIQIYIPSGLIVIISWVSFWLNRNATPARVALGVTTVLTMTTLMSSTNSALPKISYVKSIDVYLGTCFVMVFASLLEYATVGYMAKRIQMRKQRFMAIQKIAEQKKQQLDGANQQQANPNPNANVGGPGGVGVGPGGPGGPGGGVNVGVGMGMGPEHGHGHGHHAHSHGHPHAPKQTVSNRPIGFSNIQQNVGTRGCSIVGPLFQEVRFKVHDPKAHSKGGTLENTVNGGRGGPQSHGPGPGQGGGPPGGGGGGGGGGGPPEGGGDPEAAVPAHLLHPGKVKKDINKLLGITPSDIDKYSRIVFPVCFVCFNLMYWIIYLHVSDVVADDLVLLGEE
Protocol: (§1) X. laevis oocyte-positive females were purchased from NASCO (Fort Atkinson, Wisconsin, USA) and maintained according to standard methods. Harvested stage V-VI Xenopus oocytes were washed in four changes of ND96 (96 mM NaCl, 2 mM KCl, 1 mM MgCl2, 1 mM CaCl2, 5 mM HEPES, pH 7.5), de-folliculated in 1.5 mg ml^−1 collagenase Type 1A for approximately 2 h, washed again in four changes of ND96 and stored in ND96 containing 2.5 mM sodium pyruvate, 0.7 mM theophylline and […].
Site directed mutagenesis was performed with the QuikChange mutagenesis kit (Agilent, La Jolla, CA). cRNA was transcribed in vitro from linearised pGEMHE cDNA template using the mMessage mMachine T7 Transcription kit (Ambion, Austin, Texas, USA). Stage V and VI oocytes were injected with 5 ng cRNA, incubated at 18 °C, and currents recorded 18–24 h post-injection.
Currents were recorded at 5 kHz and filtered at a frequency of 1 kHz. Micro-electrodes were fabricated from borosilicate glass (GC120TF-10, Harvard Apparatus, Edenbridge, Kent, UK) using a one stage horizontal pull (P-87, Sutter Instrument Company, California, USA) and filled with 3 M KCl. […] Oocytes were perfused with ND96 at a constant rate of 12 ml min^−1. Drug application was via a simple gravity fed system calibrated to run at the same rate.
(§2) Analysis and curve fitting was performed using Prism v5 (GraphPad Software, San Diego, California, USA). Concentration-response data for each oocyte was normalised to the maximum current for that oocyte. The mean and S.E.M. for a series of oocytes were fitted to the four parameter logistic equation in Prism.

[2] = biological target: T2, T6′M mutant Drosophila RDL receptor (Drosophila melanogaster, UniProt P25123, T305M); assay: Picrotoxin inhibition of GABA responses, two electrode voltage clamp in Xenopus oocytes
T2 construct: expressed in transfected cells; host or cells: Xenopus laevis oocytes injected with cRNA
T2 sequence (P25123 45-606 T305M): T1 sequence (P25123 45-606 A319S) with T261M, S275A
Protocol: as §1
(§3) Drosophila RDL subunit cDNA (kindly gifted from N.Millar) was subcloned into pGEMHE for oocyte expression as previously described ([McGonigle and Lummis, 2010], [Millar et al., 1994]). Site directed mutagenesis was performed with the QuikChange mutagenesis kit (Agilent, La Jolla, CA). cRNA was transcribed in vitro from linearised pGEMHE cDNA template using the mMessage mMachine T7 Transcription kit (Ambion, Austin, Texas, USA). Stage V and VI oocytes were injected with 5 ng cRNA, incubated at 18 °C, and currents recorded 18–24 h post-injection.
(§4) Xenopus oocytes were clamped at −60 mV using an OC-725 amplifier (Warner Instruments, Connecticut, USA), Digidata 1322A and the Strathclyde Electrophysiology Software Package (Department of Physiology and Pharmacology, University of Strathclyde, UK), or using the Roboocyte (MultiChannel Systems). Currents were recorded at 5 kHz and filtered at a frequency of 1 kHz. Micro-electrodes were fabricated from borosilicate glass (GC120TF-10, Harvard Apparatus, Edenbridge, Kent, UK) using a one stage horizontal pull (P-87, Sutter Instrument Company, California, USA) and filled with 3 M KCl. Pipette resistances ranged from 1.0 to 2.0 MΩ. Oocytes were perfused with ND96 at a constant rate of 12 ml min^−1. Drug application was via a simple gravity fed system calibrated to run at the same rate.
as §2

[3] = biological target: T1, A20′S mutant Drosophila RDL receptor; assay: as above
Protocol: as §1, §3, §4, §2

Compound	GABA nH (Hill slope) [1]	Sensitivity to PTX ([2]; PTX up to 100 μM)	IC50 ([2]; inhibition of GABA responses, read-out: Picrotoxin pIC50 (converted)) [nM]	IC50 [3] [nM]	Picrotoxin pIC50 [3]
NCCCC(=O)O [GABA]	1.6 ± 0.4	–	–	–	–
picrotoxin	–	insensitive	> 100000	46	7.33 ± 0.13
